This assay deals with total aerobic population. The experiment in a line: Total aerobic plate count of washed, packaged and stored mushrooms. The source says:
Mushrooms were either 1) untreated (unwashed), that is, left as picked; 2) sodium metabisulfite (sulfite treated) washed. Mushrooms were water rinsed with tap water for 2 seconds then processed through 2 consecutive dip tanks containing 500 ppm sodium metabisulfite in solution; or 3) Washed using the herein disclosed process (new wash) specifically as follows: Mushrooms were conveyed on a slotted conveyor belt and sprayed with tap water for 2 seconds. They dropped into a series of two dip tanks containing 3% (w/v) sodium erythorbate, 0.15% (w/v) disodium EDTA, 0.15% (w/v) calcium chloride. Total residence time was 30 seconds. The whole mushrooms were then treated by dipping in water containing 2 ppm ozone (15 second exposure) followed immediately by 10 second exposure to ultraviolet lamp. Half of the mushroom were sliced and again exposed to 10 seconds of ultraviolet lamp. The mushrooms were packaged and stored at either 35, 45 or 55 degrees Fahrenheit and analyzed microbiologically at day 0, 3, 6, and 9 for total aerobic plate count with a sensitivity of 1,000 cfu/gram, and day 3,6 and 9 for organoleptic properties including degree of whiteness, amount of veil opening, and overall salability/quality. Storage at 45 and 55 degrees Fahrenheit represent physiologically stressful conditions and will illustrate benefits of treatments to a greater extent than 35 degree F. storage. For all examples, data was analyzed statistically using single factor ANOVA and Student's T-test preparing two groups and assuming equal variances. All data was analyzed at 95% confidence levels. Mushrooms were either 1) Mushrooms were washed with water (2-3 second drench with tap water) then processed through 2 consecutive dip tanks containing an aqueous solution of 500 ppm sodium metabisulfite (sulfite treated); or 2) Washed using the herein disclosed process (new wash) specifically as follows: Mushrooms were conveyed on a slotted conveyor belt and sprayed with tap water for […]. They dropped into a series of two dip tanks containing 3% (w/v) sodium erythorbate, 0.15% (w/v) disodium EDTA, 0.15% (w/v) calcium chloride. Total residence time was 30 seconds. The whole mushrooms were then treated with 2 ppm ozone spray followed by 10 second exposure to ultraviolet lamp. Half of the mushroom were sliced and again exposed to 10 seconds of ultraviolet lamp. The mushrooms were packaged and stored at either 35, 45 or 55 degrees Fahrenheit. 35 degree F. stored samples were analyzed at day 0, 2, 6, and 9 and 14 for total aerobic plate count. Both 35 and 45 degree F. stored samples were analyzed on day 2, 6, 9 and 14 for organoleptic properties including degree of whiteness, amount of veil opening, and overall salability/quality. Storage at 45 degrees Fahrenheit represent physiologically stressful conditions and will illustrate benefits of treatments to a greater extent than 35 degree F. storage. Mushrooms were either 1) untreated (unwashed), that is, left as picked; 2)sodium metabisulfite (sulfite treated) washed. Mushrooms were water rinsed with tap water for 5 seconds then processed through 2 consecutive dip tanks containing 500 ppm sodium metabisulfite; or 3)Washed using the herein disclosed process (new wash) specifically as follows: Mushrooms were conveyed on a slotted conveyor belt and sprayed with tap water for 2 seconds. They dropped into a series of two dip tanks containing 3% (w/v) sodium erythorbate, 0.3% (w/v) sodium chloride, 0.3% (w/v) calcium chloride. Total residence time was 30 seconds. In the third treatment (new wash 1) the whole mushrooms were then treated with 2 ppm ozone spray followed immediately by 10 second exposure to ultraviolet lamp. New wash 2 mushrooms were treated as described above but was treated only with ozone, no ultraviolet light. New wash 3 mushrooms were treated with 7 seconds of ultraviolet light, no ozone. New wash 4 mushrooms were treated with ozone and ultraviolet light simultaneously. […]

With `O=S([O-])S(=O)(=O)[O-].[Na+].[Na+]` [sulfite treated, sodium metabisulfite], the Total plate count (Experiment 1, 35 degrees Fahrenheit, sliced, Day 0) is recorded as 178,805 cfu/g; the Total plate count (Experiment 1, 35 degrees Fahrenheit, sliced, Day 3) is 12,344,021 cfu/g; the Total plate count (Experiment 1, 35 degrees Fahrenheit, sliced, Day 6) is reported as 31345339 cfu/g; the Total plate count (Experiment 1, 35 degrees Fahrenheit, sliced, Day 9) amounted to 383205051 cfu/g; the Total plate count (Experiment 1, 35 degrees Fahrenheit, whole, Day 0) is 299,999 cfu/g; the Total plate count (Experiment 1, 35 degrees Fahrenheit, whole, Day 3) was 3,849,234 cfu/g. Moreover, the Total plate count was 20709887 cfu/g (Experiment 1, 35 degrees Fahrenheit, whole, Day 6); 31562526 cfu/g (Experiment 1, 35 degrees Fahrenheit, whole, Day 9); 69,673,049 cfu/g (Experiment 1, 45 degrees Fahrenheit, sliced, Day 3); 216,318,555 cfu/g (Experiment 1, 45 degrees Fahrenheit, whole, Day 3); 381,362,639 cfu/g (Experiment 1, 55 degrees Fahrenheit, sliced, Day 3); 145,637,959 cfu/g (Experiment 1, 55 degrees Fahrenheit, whole, Day 3). The Total plate count by setting is: (Experiment 2, 35 degrees Fahrenheit, sliced, Day 0) 168,922 cfu/g; (Experiment 2, 35 degrees Fahrenheit, sliced, Day 2) 736,188 cfu/g; (Experiment 2, 35 degrees Fahrenheit, sliced, Day 6) 6,101,012 cfu/g; (Experiment 2, 35 degrees Fahrenheit, sliced, Day 9) 7,976,377 cfu/g; (Experiment 2, 35 degrees Fahrenheit, sliced, Day 14) 702,413,006 cfu/g; (Experiment 2, 35 degrees Fahrenheit, whole, Day 0) 24,188 cfu/g. The Total plate count (Experiment 2, 35 degrees Fahrenheit, whole, Day 2) is recorded as 59,492 cfu/g; the Total plate count (Experiment 2, 35 degrees Fahrenheit, whole, Day 6) is 428,579 cfu/g; the Total plate count (Experiment 2, 35 degrees Fahrenheit, whole, Day 9) is reported as 734,285 cfu/g; the Total plate count (Experiment 2, 35 degrees Fahrenheit, whole, Day 14) was 253,940,711 cfu/g. Moreover, the “Total Plate Count Sliced” value (Experiment 3, sliced, within 18 hours of processing) is on record as 918,987 cfu/gram. For the setting “Experiment 3, whole, within 18 hours of processing”, the “Total Plate Count Whole” value is 352,745 cfu/gram.

The record behind these values is patent US7258882B2, “System for maintaining fresh quality and safe food attributes of minimally processed produce” (priority 2002, dated 2007).
